Laboratory results taken from ChEMBL document CHEMBL4811258, “Potent Antimalarials with Development Potential Identified by Structure-Guided Computational Optimization of a Pyrrole-Based Dihydroorotate Dehydrogenase Inhibitor Series” (J Med Chem, 2021).
pEC50, pIC50: −log10 of the molar value. Converted amounts (≈) assume the structure as drawn. The source made the active and inactive calls. No cut-off for these calls is given here.

Legend:
[1] = Inhibition of Plasmodium falciparum DHODH expressed in Escherichia coli BL21-DE3 using L-dihydroorotate as substrate by steady-state DCIP method
Albumin = Albumin (Bos taurus, UniProt P02769); assay: Binding affinity to bovine serum albumin by Albumax assay; assay type: ADME; conditions: cattle, isolated protein
[2] = Binding affinity to microsome (unknown origin); assay type: ADME; conditions: microsomes
[3] = Intrinsic clearance in mouse liver microsomes at 1 uM measured up to 4 hrs by LC-MS analysis; assay type: ADME, Microsome
[4] = Unbound intrinsic clearance in mouse liver microsomes at 1 uM measured up to 4 hrs by LC-MS analysis; assay type: ADME, Microsome
[5] = Plasma clearance in Swiss mouse at 1 mg/kg, iv measured up to 24 hrs by LC-MS analysis; assay type: ADME, organism-based
[6] = Volume of distribution at steady state in Swiss mouse at 1 mg/kg, iv measured up to 24 hrs by LC-MS analysis; assay type: ADME, organism-based; conditions: in vivo, read-out: Vdss
[7] = Half life in Swiss mouse at 10 mg/kg, po measured up to 24 hrs by LC-MS analysis; assay type: ADME, organism-based; conditions: in vivo
[8] = Tmax in Swiss mouse at 10 mg/kg, po measured up to 24 hrs by LC-MS analysis; assay type: ADME, organism-based; conditions: in vivo
[9] = Cmax in Swiss mouse at 10 mg/kg, po measured up to 24 hrs by LC-MS analysis; assay type: ADME, organism-based; set-up: route oral, dose 10 mg/kg, time <=24; conditions: in vivo
[10] = AUC (0 to infinity) in Swiss mouse at 10 mg/kg, po measured up to 24 hrs by LC-MS analysis; assay type: ADME, organism-based; set-up: route oral, dose 10 mg/kg, time <=24; conditions: in vivo
[11] = Oral bioavailability in Swiss mouse at 10 mg/kg measured up to 24 hrs by LC-MS analysis; assay type: ADME, organism-based; conditions: in vivo
[12] = Plasma clearance in Sprague-Dawley rat at […], iv measured up to 24 hrs; assay type: ADME, organism-based; conditions: dose 2.6 mg/kg
[13] = Volume of distribution at steady state in Sprague-Dawley rat at […], iv measured up to 24 hrs; assay type: ADME, organism-based; conditions: in vivo, dose 2.6 mg/kg, read-out: Vdss
[14] = Apparent half life in Sprague-Dawley rat at 19 mg/kg, po measured up to 24 hrs; assay type: ADME, organism-based; conditions: in vivo, read-out: t1/2(app) (converted)
[15] = Tmax in Sprague-Dawley rat at 19 mg/kg, po measured up to 24 hrs; assay type: ADME, organism-based; conditions: in vivo
[16] = Cmax in Sprague-Dawley rat at 19 mg/kg, po measured up to 24 hrs; assay type: ADME, organism-based; set-up: route oral, dose 19 mg/kg, time <=24; conditions: in vivo
[17] = AUC (0 to infinity) in Sprague-Dawley rat at 19 mg/kg, po measured up to 24 hrs; assay type: ADME, organism-based; set-up: route oral, dose 19 mg/kg, time <=24; conditions: in vivo
[18] = Oral bioavailability in Sprague-Dawley rat at 19 mg/kg measured up to 24 hrs; assay type: ADME, organism-based; conditions: in vivo
Plasmodium falciparum [19] = assay: Antiplasmodial activity against Plasmodium falciparum 3D7 Uganda infected in human erythrocytes assessed as parasite killing using albumax media measured after 72 hrs by SYBR Green assay; assay type: functional, organism-based; conditions: 3D7, 72 h
Plasmodium falciparum [20] = assay: Antiplasmodial activity against Plasmodium falciparum Dd2 Uganda infected in human erythrocytes assessed as parasite killing using albumax media measured after 72 hrs by SYBR Green assay; assay type: functional, organism-based; conditions: Dd2, 72 h
Plasmodium falciparum [21] = assay: Antiplasmodial activity against Plasmodium falciparum Uganda field isolated from patients infected in human erythrocytes assessed as parasite killing using albumax media measured after 72 hrs by SYBR Green assay; assay type: functional, organism-based
Plasmodium falciparum [22] = assay: Antimalarial activity against Plasmodium falciparum 3D70087/N9 infected in orally dosed NOD-SCID IL2Rgamma null mouse assessed as parasitemia level administered days after 3 post infection once daily for 4 days measured on day 7 by flow cytometry; assay type: functional; conditions: time 4 day
[23] = Unbound AUC in orally dosed NOD-SCID IL2Rgamma null mouse infected with Plasmodium falciparum 3D70087/N9 administered days after 3 post infection once daily for 4 days measured on day 7 by flow cytometry; assay type: ADME, organism-based; conditions: in vivo, po, 96 h, time 4 day
Plasmodium falciparum [24] = assay: Antimalarial activity against Plasmodium falciparum 3D70087/N9 infected in NOD-SCID IL2Rgamma null mouse assessed as parasitemia level at 10 mg/kg, po administered days after 3 post infection once daily for 4 days measured on day 7 by flow cytometry; assay type: functional, organism-based; conditions: time 4.0 day
Plasmodium falciparum [25] = assay: Antimalarial activity against Plasmodium falciparum 3D70087/N9 infected in orally dosed NOD-SCID IL2Rgamma null mouse assessed as parasitemia level in human red blood cells at 16.7 mg/kg, po administered days after 1 day post infection twice daily for 6 days measured on day 7 by flow cytometry; assay type: functional, organism-based; conditions: time 6.0 day
physchem [26] = conditions: FaSSGF, pH 1.6
physchem [27] = conditions: FaSSIF, pH 6.5
physchem [28] = conditions: FeSSIF, pH 5.8
physchem [29] = conditions: PBS, pH 7.4
in vitro [30] = conditions: human, plasma
in vitro [31] = conditions: rat, plasma
in vitro [32] = conditions: mouse, plasma
in vitro [33] = conditions: human, caco-2, pH 7.4
in vitro [34] = conditions: human, caco-2, pH 7.4; remark: listed apart in the source
Plasmodium falciparum [35] = assay: microbe, parasite or virus in culture; conditions: 3D7, 72 h

Albumin, sequence (P02769 whole entry): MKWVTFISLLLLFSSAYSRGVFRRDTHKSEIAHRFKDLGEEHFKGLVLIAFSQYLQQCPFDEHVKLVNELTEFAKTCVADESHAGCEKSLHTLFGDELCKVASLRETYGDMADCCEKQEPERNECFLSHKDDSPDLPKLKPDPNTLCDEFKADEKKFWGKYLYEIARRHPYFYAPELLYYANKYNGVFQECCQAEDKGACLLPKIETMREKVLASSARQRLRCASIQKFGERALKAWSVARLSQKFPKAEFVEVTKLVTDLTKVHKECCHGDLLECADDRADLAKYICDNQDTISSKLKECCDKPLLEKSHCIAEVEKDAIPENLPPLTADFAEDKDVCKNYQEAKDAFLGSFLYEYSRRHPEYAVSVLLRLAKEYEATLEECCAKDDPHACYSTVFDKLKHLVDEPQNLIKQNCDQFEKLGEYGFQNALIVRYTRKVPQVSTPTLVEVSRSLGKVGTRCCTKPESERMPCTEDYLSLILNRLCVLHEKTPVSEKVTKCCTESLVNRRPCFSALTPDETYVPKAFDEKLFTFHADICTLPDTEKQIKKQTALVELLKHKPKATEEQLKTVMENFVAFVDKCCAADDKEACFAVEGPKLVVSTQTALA

Cc1cc(Nc2ccc(S(F)(F)(F)(F)F)cc2)n2nc(C(F)(F)F)nc2n1 gave a pIC50 [1] of 7.52, an Activity (Albumin) of 83.1% and an Activity [2] of 71.7%. The Intrinsic clearance [3] was under 7 µL/min/mg, the CL free [4] was under 25 µL/min/mg and the clearance [5] was 8.2 mL/min/kg. For the same compound, the Vd [6] was 2.3 L/kg, the half-life [7] was 2.5 h and the Tmax [8] was 1.2 h. The Cmax [9] was 3.1 µM, the AUC(0-inf) [10] was 22.8 µM·h and the bioavailability [11] was 46%. It also gave a clearance at 24 h [12] of 6.5 mL/min/kg, a Vd at 24 h [13] of 5.9 L/kg and a half-life [14] of 16 h. For the same compound, the Tmax [15] was 7 h, the Cmax [16] was 4 µM and the AUC(0-inf) [17] was 120 µM·h. The bioavailability [18] was 57%, the pEC50 (Plasmodium falciparum [19]) was 8.54 and the pEC50 (Plasmodium falciparum [20]) was 8.54. For the same compound, the pEC50 (Plasmodium falciparum [21]) was 8.43, the ED50 (Plasmodium falciparum [22]) was 5.6 mg/kg and the fAUC [23] was 0.85 µM·h. The Activity (Plasmodium falciparum [24]) was “Active”, the Activity (Plasmodium falciparum [25]) was “Active” and the solubility at 1 h (physchem [26]) was 6.8 µg/mL (≈ 16.2 µM). The solubility at 5 h (physchem [27]) was 5.1 µg/mL (≈ 12.2 µM), the solubility at 5 h (physchem [28]) was 27.6 µg/mL (≈ 65.8 µM) and the solubility at 5 h (physchem [29]) was 2 µg/mL (≈ 4.77 µM). For the same compound, the fraction unbound (in vitro [30]) was 0.002, the fraction unbound (in vitro [31]) was 0.025 and the fraction unbound (in vitro [32]) was 0.03. For the same compound, the Papp A→B (in vitro [33]) was 54 ×10⁻⁶ cm/s, the Papp B→A (in vitro [34]) was 49 ×10⁻⁶ cm/s and the pEC50 (Plasmodium falciparum [35]) was 8.22.
